Test results: patent US20090023696A1, “USE OF C3-C10 17ALFA-ESTERS OF 9,11-DEHYDROCORTEXOLONE AS ANTI-GONADOTROPHIC AGENTS” (COSMO BIO-TECHNOLOGIES SRL, priority 2005, published 2009)
Several values for one entry are separate records, joined by “and”; a condition that tells them apart may be missing. Equal values may be shown once. Entries after “also recorded” stand apart in the source; their conditions may differ. Marks after values point to notes of the source that are not given here.

Tested on: hypersecretion of gonadotrophin in the parabiotic rat
Assay: Hypersecretion of gonadotrophin induced by castration in parabiotic rats (ovarian weight)
Assay type: in vivo, Wistar rats
Settings: for Inhibition of ovarian weight (%): subcutaneously into castrated males; for anti-gonadotrophic effect (inhibitory effect on gonadotrophin secretion), in words: overall conclusion from Table 1
Protocol: The anti-gonadotrophic action was evaluated in an animal model by evaluation of the hypersecretion of the gonads induced by castration in parabiotic rats (Shipley E. G., in: Methods in Hormone Research, R. L Dorfman (ed.), vol. 2, pp 179-274. Academic Press, New York and London, 1962). The results of the inhibitory action of […] 17α-butyrate on the gonads are shown below in Table 1. Wistar rats of both sexes with body weights of 50-60 g were used. The males were castrated and, on the next day, were surgically united along the lateral body wall with intact females (parabiosis). In this experimental procedure, the castration of the males induces in them an immediate hypersecretion of gonadotrophin, which, on reaching the female via the parabiotic union, stimulates ovarian growth. […] Progesterone was used as a positive control and was administered by the same procedure, in doses of 0.5 and 2 mg. Additional groups of pairs including intact males/intact females and castrated males/intact females were treated with the vehicle only and used as a control. At the end of the treatment period, the pairs were killed and autopsies performed. The ovaries and uteruses of each female rate were isolated and weighed. The inhibitory action causing hypersecretion of gonadotrophin due to castration was evaluated via the capacity of the tested compound to oppose the increase of weight of the ovaries.

Row | Compound | Inhibition of ovarian weight (%) (daily dose 1 mg) | Inhibition of ovarian weight (%) (daily dose 5 mg) | anti-gonadotrophic effect (inhibitory effect on gonadotrophin secretion), in words | Inhibition of ovarian weight (%) (daily dose 0.5 mg) | Inhibition of ovarian weight (%) (daily dose 2 mg)
1 | CCCC(=O)O[C@]1(C(=O)CO)CCC2C3CCC4=CC(=O)CCC4(C)C3=CCC21C (stereo partly drawn) [9,11-dehydrocortexolone 17α-butyrate] | 59% and 59^a % | 96% and 96^a % | strong and significant dose-correlated inhibitory effect on gonadotrophin secretion; also recorded: comparable to that shown by comparable doses of progesterone | – | –
2 | CCC(=O)O[C@]1(C(=O)CO)CC[C@H]2[C@@H]3CCC4=CC(=O)CC[C@]4(C)[C@H]3CC[C@@]21C [cortexolone 17α-propionate, reference compound] | 5% | 5% | no anti-gonadotrophic action at all | – | –
3 | CC(=O)[C@H]1CC[C@H]2[C@@H]3CCC4=CC(=O)CC[C@]4(C)[C@H]3CC[C@]12C [progesterone, reference compound] | – | – | – | 38^b % | 66^a %
